Results as given in patent publication US20220071952A1, “METHODS OF TREATING AND PREVENTING HEPATOTOXICITY” (Natreon, Inc., priority 2020, published 2022).

Legend:
[1] = system: alcohol-induced hepatotoxicity in mice; assay: Alcohol (ethanol)-induced hepatotoxicity in mice, biochemical and physical parameters (Example III); format: in vivo, Swiss Albino mice; details: for Relative organ weight (w.r.t body weight) Kidney / Relative organ weight (w.r.t body weight) Liver / ACP / ALP / ALT(SGPT) / AST(SGOT) / Total Protein: 10 mg/kg p.o. + alcohol 5 g/kg p.o. twice daily, mean ± SD; for ACP / ALP / ALT(SGPT) / AST(SGOT) / Total Protein: plasma
Description: (§1) Swiss Albino male and female mice weighing approximately 30±5 g, 2 month old mice were obtained from National Research Institute of Ayurveda for Drug Development (Govt. of India), Kolkata, and were housed in polypropylene cages at 22±3° C., relative air humidity of 45 to 55%, with 12.00 hr light & dark cycle (lighting on from 6:00 AM to 6:00 PM). Mice were provided a standard pellet chow diet (carbohydrate 65.5%, protein 17.6%, fat 6.6%) and distilled water ad libitum. The mice were acclimatized for one week in the laboratory conditions, before being used in the experiment. All experiments were conducted between 10.00 hr and 14.00 hr. Principles of laboratory animals care (NIH publication no. 85-23, revised 1985) were followed.
In the present study simultaneous administration of alcohol (ethanol) and treatment with 3-OH-DBP and 3,8-(OH)2-DBP was done.
(§2) Vehicle control animals (“Con Veh”) were administered 0.3% CMC orally for 15 days.
(§3) Animals receiving ethanol (“Alc+0.3 CMC”, “3-OH-DBP+Alc”, “3,8-(OH)2-DBP+Alc”) were administered ethanol in 0.3% CMC orally as discussed above.
(§4) Results were expressed in terms of mean±SD (n=8). The data were subjected to one way ANOVA followed by Tukey's test using GraphPad Prism 4.0 software to establish statistical significance (*p<0.05, **p<0.01, ***p<0.001 vs. vehicle control; # p<0.05, ## p<0.01, ### p<0.001 vs. animals administered ethanol only).

[2] = Body weight, food intake and water intake during alcohol-induced hepatotoxicity study (Example III); format: in vivo, Swiss Albino mice; details: for change in body weight / change in food intake / change in water intake: 10 mg/kg p.o. + alcohol, 15 days; for body weight / food intake / water intake: 10 mg/kg p.o. + alcohol 5 g/kg p.o. twice daily, mean ± SD
Description: as §1, §2, §3, §4

[3] = system: paracetamol-induced hepatotoxicity in mice; assay: Synergistic hepatoprotective activity of DBPs against paracetamol-induced hepatotoxicity (Example IV); format: in vivo; details: for ACP / ALP / ALT / AST / Total Protein: paracetamol 200 mg/kg, mean ± SEM, n=4
[4] = system: alcohol-induced hepatotoxicity in mice; assay: Synergistic hepatoprotective activity of DBPs against alcohol-induced hepatotoxicity (Example IV); details: for ACP / ALP / ALT / AST / Total Protein: alcohol 5 g/kg, mean ± SEM, n=4
Description: Hepatotoxicity was induced by oral administration of alcohol (ethanol: 5 g/kg) from stock 400 mg/ml twice daily for 15 days.
3-OH-DBP and 3,8-(OH)2-DBP were each separately suspended in 0.3% CMC and administered at a dose of 10 mg/kg body weight per orally for 15 days. During the 15 days treatment, body weight, food intake, and water intake were monitored at regular intervals. Following 15 days of treatment physical parameters (relative organ weight) and biochemical parameters (plasma total protein content, ALT, AST, ALP, and ACP) were studied.
3-OH-DBP (2 mg/kg body weight, 10 mg/kg body weight);
3,8-(OH)2-DBP (10 mg/kg body weight, 50 mg/kg body weight); and

[5] = female mice (Table 14), 10 mg/kg p.o.
[6] = male mice (Table 13), 10 mg/kg p.o.
[7] = female mice, doses 3-OH-DBP 2, 3,8-(OH)2-DBP 10, 1:5 combination 12 mg/kg b.w.
[8] = female mice, doses 3-OH-DBP 10, 3,8-(OH)2-DBP 50, 1:5 combination 60 mg/kg b.w.
[9] = male mice, doses 3-OH-DBP 2, 3,8-(OH)2-DBP 10, 1:5 combination 12 mg/kg b.w.
[10] = male mice, doses 3-OH-DBP 10, 3,8-(OH)2-DBP 50, 1:5 combination 60 mg/kg b.w.
[11] = female mice, doses 3-OH-DBP 2, 3,8-(OH)2-DBP 10, combination 12 mg/kg b.w.

O=c1oc2cc(O)ccc2c2ccc(O)cc12 [3,8-(OH)2-DBP, 3,8-dihydroxy-dibenzo-alpha-pyrone]
hepatoprotective activity against alcohol-induced hepatotoxicity ([1]; 10 mg/kg p.o., 15 days): significant hepatoprotective activity | effect on alcohol-induced increased plasma ACP [1, 5]: significantly (p<0.05) attenuated | effect on alcohol-induced increased plasma ALT [1, 5]: significantly (p<0.001) attenuated | effect on alcohol-induced increased plasma AST [1, 5]: significantly (p<0.05; p<0.01) attenuated | effect on plasma ALP level compared with ALC group [1, 5]: did not show significant (p>0.05) change | Relative organ weight (w.r.t body weight) Kidney ([1]; female mice, 15 days): 0.012 ± 0.001 | Relative organ weight (w.r.t body weight) Liver ([1]; female mice, 15 days): 0.048 ± 0.001 | ACP ([1]; female mice, 15 days): 4.31 ± 2.84^## IU/L | ALP ([1]; female mice, 15 days): 43.12 ± 5.84 IU/L | ALT(SGPT) ([1]; female mice, 15 days): 6.72 ± 0.727^## IU/L | AST(SGOT) ([1]; female mice, 15 days): 3.62 ± 1.27^## IU/L | Total Protein ([1]; female mice, 15 days): 3.229 ± 0.187 g/dL | effect on alcohol-induced increased plasma ACP [1, 6]: significantly (p<0.05) attenuated | effect on alcohol-induced increased plasma ALT [1, 6]: significantly (p<0.05) attenuated | effect on alcohol-induced increased plasma AST [1, 6]: significantly (p<0.05) attenuated | Relative organ weight (w.r.t body weight) Kidney ([1]; male mice, 15 days): 0.016 ± 0.002 | Relative organ weight (w.r.t body weight) Liver ([1]; male mice, 15 days): 0.044 ± 0.005 | ACP ([1]; male mice, 15 days): 4.29 ± 1.22^## IU/L | ALP ([1]; male mice, 15 days): 27.39 ± 6.15 ^ IU/L | ALT(SGPT) ([1]; male mice, 15 days): 9.98 ± 3.44^# IU/L | AST(SGOT) ([1]; male mice, 15 days): 4.51 ± 1.80^# IU/L | Total Protein ([1]; male mice, 15 days): 3.229 ± 0.187^ g/dl | change in body weight ([2]; female mice): No significant change | change in food intake ([2]; female mice): No significant change | change in water intake ([2]; female mice): No significant change | body weight ([2]; female mice, Day 0): 25.17 ± 2.32 gm | food intake ([2]; female mice, Day 0): 8.52 ± 0.30 gm | water intake ([2]; female mice, Day 0): 4 ± 0.28 mL | body weight ([2]; female mice, Day 5): 23.5 ± 3.02 gm | food intake ([2]; female mice, Day 5): 8.78 ± 1.02 gm | water intake ([2]; female mice, Day 5): 4.01 ± 0.26 mL | body weight ([2]; female mice, Day 10): 23.67 ± 3.07 gm | food intake ([2]; female mice, Day 10): 16.44 ± 0.47 gm | water intake ([2]; female mice, Day 10): 2.32 ± 0.46 mL | body weight ([2]; female mice, Day 15): 22.83 ± 2.78 gm | food intake ([2]; female mice, Day 15): 16.12 ± 0.66 gm | water intake ([2]; female mice, Day 15): 2.15 ± 0.44 mL | change in body weight ([2]; male mice): No significant change | change in food intake ([2]; male mice): No significant change | change in water intake ([2]; male mice): No significant change | body weight ([2]; male mice, Day 0): 29.17 ± 2.79 gm | food intake ([2]; male mice, Day 0): 17.01 ± 0.75 gm | water intake ([2]; male mice, Day 0): 4.92 ± 0.45 mL | body weight ([2]; male mice, Day 5): 25 ± 3.29 gm | food intake ([2]; male mice, Day 5): 17.18 ± 0.85 gm | water intake ([2]; male mice, Day 5): 5.07 ± 0.61 mL | body weight ([2]; male mice, Day 10): 25.67 ± 2.66 gm | food intake ([2]; male mice, Day 10): 17.21 ± 1.11 gm | water intake ([2]; male mice, Day 10): 2.32 ± 0.31 mL | body weight ([2]; male mice, Day 15): 24.8 ± 2.93 gm | food intake ([2]; male mice, Day 15): 17.23 ± 1.16 gm | water intake ([2]; male mice, Day 15): 2.27 ± 0.33 mL | ACP, difference in values from paracetamol treated mice [3, 7]: B = (a-c = 4) U/L | ALP, difference in values from paracetamol treated mice [3, 7]: D = (a-c = 53) IU/L | ALT, difference in values from paracetamol treated mice [3, 7]: B = (a-c = 39) IU/L | AST, difference in values from paracetamol treated mice [3, 7]: B = (a-c = 64) IU/L | ACP, difference in values from paracetamol treated mice [3, 8]: E = (a-f = 5) U/L | ALP, difference in values from paracetamol treated mice [3, 8]: E = (a-f = 48) IU/L | ALT, difference in values from paracetamol treated mice [3, 8]: E = (a-f = 43) IU/L | AST, difference in values from paracetamol treated mice [3, 8]: E = (a-f = 77) IU/L | ACP [3, 7]: 12 ± 0.63^##(c) U/L | ALP [3, 7]: 45 ± 7.9^##(c) IU/L | ALT [3, 7]: 47 ± 12 (c) IU/L | AST [3, 7]: 79 ± 11*,^#(c) IU/L | Total Protein [3, 7]: 6.7 ± 0.02 g/dL | ACP [3, 8]: 11 ± 0.41^#(f) U/L | ALP [3, 8]: 50 ± 11^#(f)^ IU/L | ALT [3, 8]: 43 ± 2.5^##(f) IU/L | AST [3, 8]: 66 ± 11*,^#(f) IU/L | Total Protein [3, 8]: 5.8 ± 0.30 g/dL | Relative liver weight ([3]; male and female mice, paracetamol study of Example IV): significantly (p<0.01) increased | ACP, difference in values from paracetamol treated mice [3, 9]: B = (a-c = 6.13) U/L | ALP, difference in values from paracetamol treated mice [3, 9]: B = (a-c = 50.87) IU/L | ALT, difference in values from paracetamol treated mice [3, 9]: B = (a-c = 18.35) IU/L | AST, difference in values from paracetamol treated mice [3, 9]: B = (a-c = 33.82) IU/L | ACP, difference in values from paracetamol treated mice [3, 10]: E = (a-f = 10.56) U/L | ALP, difference in values from paracetamol treated mice [3, 10]: E = (a-f = 48.85) IU/L | ALT, difference in values from paracetamol treated mice [3, 10]: E = (a-f = 20.56) IU/L | AST, difference in values from paracetamol treated mice [3, 10]: E = (a-f = 46.36) IU/L | ACP [3, 9]: 12.06 ± 0.43 (c) U/L | ALP [3, 9]: 77.63 ± 6.81 (c) IU/L | ALT [3, 9]: 49.28 ± 7.23 (c) IU/L | AST [3, 9]: 68.23 ± 4.96^###(c) IU/L | Total Protein [3, 9]: 6.97 ± 0.12 g/dL | ACP [3, 10]: 7.63 ± 0.45^##(f) ^ U/L | ALP [3, 10]: 79.67 ± 10.18^###(f) IU/L | ALT [3, 10]: 47.07 ± 6.69^#(f) ^ IU/L | AST [3, 10]: 55.69 ± 5.37^###(f) IU/L | Total Protein [3, 10]: 6.98 ± 0.12 g/dL | hepatoprotective activity (conclusion, Tables 15 and 16) ([3]; paracetamol-induced hepatotoxicity, male and female mice): hepatoprotective activity in a dose dependent manner | hepatoprotective activity (conclusion, Tables 17 and 18) ([4]; alcohol-induced hepatotoxicity, male and female mice): hepatoprotective activity in a dose dependent manner | ACP [4, 11]: 15.6 ± 0.99 U/L | ALP [4, 11]: 84 ± 6.5 (c) IU/L | ALT [4, 11]: 45.80 ± 5.76 (c)^ IU/L | AST [4, 11]: 64.09 ± 7.34 (c)^ IU/L | Total Protein [4, 11]: 6.53 ± 0.10 g/dL | Relative liver weight ([4]; female mice, alcohol study of Example IV): significantly decreased | ACP, difference in values from alcohol treated mice [4, 11]: (c) B = (a-c = 5.67) U/L | ALP, difference in values from alcohol treated mice [4, 11]: B = (a-c = 55.35) IU/L | ALT, difference in values from alcohol treated mice [4, 11]: B = (a-c = 43.04) IU/L | AST, difference in values from alcohol treated mice [4, 11]: B = (a-c = 4.9) IU/L | ACP [4, 9]: 11.2 ± 1.44 (c) U/L | ALP [4, 9]: 88.1 ± 15.8 (c) IU/L | ALT [4, 9]: 53.9 ± 3.99 (c) IU/L | AST [4, 9]: 25.6 ± 3.10 (c) IU/L | Total Protein [4, 9]: 7.65 ± 0.34 g/dL | ACP [4, 10]: 9.19 ± 0.71 (f)^ U/L | ALP [4, 10]: 78 ± 7.21 (f) IU/L | ALT [4, 10]: 64.3 ± 2(f) ^ IU/L | AST [4, 10]: 24.8 ± 2.19 (f) IU/L | Total Protein [4, 10]: 8.60 ± 0.35 g/dL | ACP, difference in values from alcohol treated mice [4, 9]: B = (a-c = 7.4) U/L | ALP, difference in values from alcohol treated mice [4, 9]: B = (a-c = 45.9) IU/L | ALT, difference in values from alcohol treated mice [4, 9]: B = (a-c = 52.1) IU/L | AST, difference in values from alcohol treated mice [4, 9]: B = (a-c = 35.1) IU/L | ACP, difference in values from alcohol treated mice [4, 10]: E = (a-f = 9.41) U/L | ALP, difference in values from alcohol treated mice [4, 10]: E = (a-f = 56) IU/L | ALT, difference in values from alcohol treated mice [4, 10]: E = (a-f = 41.7) IU/L | AST, difference in values from alcohol treated mice [4, 10]: E = (a-f = 35.9) IU/L
